From patent US20090143279A1 (priority 2007, published 2009)
Several values for one entry are separate records, joined by “and”; a condition that tells them apart may be missing. Identical values can stand only once. Like-named read-outs stand apart in the source and are kept apart here.

Tests used:
mtOXPHOS transcripts = format: cell-based, mouse
nuOXPHOS transcripts = format: cell-based, mouse
OXPHOS gene expression = format: cell-based, mouse
reactive oxygen species = format: cell-based, mouse
cytochrome c = format: cell-based, mouse
Sequence of cytochrome c (P62897 whole entry): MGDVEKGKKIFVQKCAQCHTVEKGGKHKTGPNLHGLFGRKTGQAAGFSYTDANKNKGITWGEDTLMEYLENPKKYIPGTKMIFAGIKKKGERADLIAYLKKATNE

[1] = tested on: mitochondrial membrane potential; format: cell-based, mouse
[2] = tested on: cellular dehydrogenase activity
[3] = Table 7, C2C12 myotubes, 48 h, composite Z-score
[4] = Table 3, differentiated C2C12 myotubes, 48 h treatment, composite Z-score vs DMSO
[5] = Table 5, C2C12 myotubes, 48 h, composite Z-score
[6] = retest at 20 nM to 20 μM, FIG. 6a
[7] = composite Z-score vs DMSO, Conc 20 μM
[8] = normalized composite Z-score vs mock-treated (DMSO) wells, Conc 20 μM
[9] = Table 6, C2C12 myotubes, 48 h, composite Z-score
[10] = composite Z-score vs mock-treated (DMSO) wells, Conc 20 μM
[11] = 20 μM, composite Z-score vs DMSO

## O=C1C(Cl)=C(Cl)C(=O)C(Cl)=C1Cl [Chloranil, reference compound]
mtOXPHOS transcripts; [3]
  mito-OXPHOS Z: 2.50
nuOXPHOS transcripts; [3]
  nucOXPHOS Z: −2.45

## COc1cc2c(c(OC)c1OC)-c1ccc(OC)c(=O)cc1[C@@H](NC(C)=O)CC2 [Colchicine, reference compound]
nuOXPHOS transcripts
  nucOX: 0.807 and 1.549
OXPHOS gene expression
  OXPHOS expression: modest increase
Reactive oxygen species
  ROS levels: did not display the same decrease in ROS levels

## CC[C@H]1CN2CCc3cc(OC)c(OC)cc3[C@@H]2C[C@@H]1C[C@H]1NCCc2cc(OC)c(OC)cc21 [Emetine, reference compound]
Cytochrome c
  cyt c: −1.644
  cyt c (composite Z-score): −0.191
nuOXPHOS transcripts
  nuOXPHOS expression: preferentially increase

## COC(=O)Nc1nc2cc(C(=O)c3cccs3)ccc2[nH]1 [Nocodazole, methyl[5-(2-thienylcarbonyl)-1H-benzimidazol-2-yl]carbamate, reference compound]
OXPHOS gene expression; [4]
  GEHTS_Zscore: 2.675
OXPHOS gene expression; [5]
  GEHTS_Zscore: 2.675
OXPHOS gene expression; primary screen, in words
  OXPHOS expression: boost OXPHOS expression
OXPHOS gene expression; [6]
  dose at which OXPHOS expression increased: 2 µM
Reactive oxygen species; [4]
  ROS Zscore: −1.099
Reactive oxygen species; [5]
  ROS Zscore: −1.099
Reactive oxygen species; primary screen, in words
  ROS levels: suppressing ROS levels
Reactive oxygen species; [6]
  dose at which ROS levels decreased: 2 µM

## OCCN1CCN(CCCN2c3ccccc3Sc3ccc(Cl)cc32)CC1 [Perphenazine, reference compound]
nuOXPHOS transcripts; 20 μM, within the first hour of treatment
  decline of nuOXPHOS expression: 21%

## CC(=O)Nc1ccc(O)cc1 [acetaminophen]
mtOXPHOS transcripts
  mitoOX: 0.317
Reactive oxygen species
  ROS: 0.527

## CCCSc1ccc2nc(NC(=O)OC)[nH]c2c1 [albendazole, reference compound]
Cytochrome c
  cyt c: −0.280
OXPHOS gene expression
  GEHTS_Zscore: 2.379
Reactive oxygen species
  ROS Zscore: −1.434

## C=C(C)[C@@H]1CC[C@]2(CO)CC[C@]3(C)[C@H](CC[C@@H]4[C@@]5(C)CC[C@H](O)C(C)(C)[C@@H]5CC[C@]43C)[C@@H]12 [betulin]
nuOXPHOS transcripts
  nucOX: 0.598

## CC1=C(O)C(=O)C=C2C1=CC=C1[C@@]2(C)CC[C@@]2(C)[C@@H]3C[C@](C)(C(=O)O)CC[C@]3(C)CC[C@]12C [celastrol]
Cytochrome c; [7]
  cyt c: −5.979
[1]; [7]
  ΔΨm: −3.520
[2]; [7]
  MTT: −6.584
C2C12 myotubes; [7]
  Viability: −4.797
Reactive oxygen species; [7]
  ROS: −2.732

## Cc1cc(C2CCCCC2)n(O)c(=O)c1.NCCO [ciclopirox ethanolamine]
Cytochrome c
  cyt c: −0.351
[1]
  ΔΨm: 2.994
[2]
  MTT: −2.239
C2C12 myotubes
  Viability: 0.101
Reactive oxygen species
  ROS: −1.968

## O=c1cccc2n1C[C@@H]1CNC[C@H]2C1 [cytisine]
Cytochrome c
  cyt c: 0.186 and 0.095
OXPHOS gene expression
  GE-HTS: 0.025
Reactive oxygen species
  ROS: 1.150

## C[C@H]1C/C=C/[C@H]2[C@@H]3O[C@]3(C)[C@@H](C)[C@H]3[C@H](Cc4ccccc4)NC(=O)[C@]32OC(=O)O/C=C/[C@@](C)(O)C1=O [cytochalasin e, reference compound]
OXPHOS gene expression; [4]
  GEHTS_Zscore: 2.827
Reactive oxygen species; [4]
  ROS Zscore: −2.109

## C[C@@H]1CC[C@@]23CCC4(C)[C@@](C=CC5[C@@]6(C)CC[C@H](O)C(C)(C)C6CC[C@]54C)(OC2=O)C3[C@H]1C (stereo partly drawn) [dehydro (11,12)ursolic acid lactone]
Cytochrome c; [8]
  cyt c: −0.175
[1]
  ΔΨm: −0.429
[2]
  MTT: 0.402
C2C12 myotubes
  Viability: −0.003
Reactive oxygen species
  ROS: 0.385

## COc1ccc2c(c1)OCC(Cc1ccc(OC(C)=O)c(OC)c1)C2=O (stereo not drawn) [deoxysappanone (B) 7,3′-dimethyl ether acetate, reference compound]
OXPHOS gene expression; [9]
  GEHTS_Zscore: −0.723
Reactive oxygen species; [9]
  ROS Zscore: −1.894

## COc1ccc2c(c1)OCC(Cc1ccc(OC)c(OC)c1)C2=O (stereo not drawn) [deoxysappanone (B) trimethyl ether, reference compound]
OXPHOS gene expression; [9]
  GEHTS_Zscore: 0.768
Reactive oxygen species; [9]
  ROS Zscore: 1.064

## CC(C)=CCCC1(C)C=Cc2c(O)c3c(c(CC=C(C)C)c2O1)OC12C(=CC4CC1C(C)(C)OC2(C/C=C(/C)C(=O)O)C4O)C3=O (stereo not drawn) [dihydrogambogic acid]
Cytochrome c; [10]
  cyt c: −5.191
[1]; [10]
  ΔΨm: −3.431
[2]; [10]
  MTT: −6.208
C2C12 myotubes; [10]
  Viability: −5.468
Reactive oxygen species; [10]
  ROS: −2.239

## COc1ccc2c(c1)CC[C@@H]1[C@@H]2CC[C@]2(C)[C@@H](O)[C@H](O)C[C@@H]12 [estriol methyl ether]
Cytochrome c; [7]
  cyt c: 0.241
[1]
  ΔΨm: −0.046
[2]
  MTT: −1.611
C2C12 myotubes
  Viability: 0.054
Reactive oxygen species
  ROS: 0.299

## COC1=CC(=O)C[C@@H](C)[C@]12Oc1c(Cl)c(OC)cc(OC)c1C2=O [griseofulvin, reference compound]
OXPHOS gene expression; [5]
  GEHTS_Zscore: 2.199
OXPHOS gene expression; primary screen, in words
  OXPHOS expression: modest increase
Reactive oxygen species; [5]
  ROS Zscore: 0.371
Reactive oxygen species; primary screen, in words
  ROS levels: did not display the same decrease in ROS levels

## CC(=O)N(CC(O)CO)c1c(I)c(C(=O)NCC(O)CO)c(I)c(C(=O)NCC(O)CO)c1I (stereo not drawn) [iohexol]
Cytochrome c
  cyt c: 0.080
[1]
  ΔΨm: −0.970
[2]
  MTT: −1.085
C2C12 myotubes
  Viability: −0.374
Reactive oxygen species
  ROS: 0.568

## O=C1C[C@@H](c2ccc(O)cc2)Oc2cc(O)ccc21 [liquiritigenin]
Cytochrome c; [8]
  cyt c: 0.523
mtOXPHOS transcripts; [8]
  mitoOX: −1.069
[1]; [8]
  ΔΨm: 1.004
OXPHOS gene expression; [8]
  GE-HTS: −0.749
[2]; [8]
  MTT: −0.429
C2C12 myotubes; [8]
  Viability: 1.353
Reactive oxygen species; [8]
  ROS: 0.301

## N[C@@H](C(=O)N[C@@H]1C(=O)N2C(C(=O)O)=C(Cl)CC[C@H]12)c1ccccc1 [loracarbef]
Cytochrome c
  cyt c: 0.622
[1]
  ΔΨm: −0.229
[2]
  MTT: −0.158
C2C12 myotubes
  Viability: 0.317
Reactive oxygen species
  ROS: −0.236

## CCOC(=O)N1CCC(=C2c3ccc(Cl)cc3CCc3cccnc32)CC1 [loratadine]
Cytochrome c
  cyt c: −0.317
[1]
  ΔΨm: 0.191
OXPHOS gene expression
  GE-HTS: −0.306
[2]
  MTT: −1.609
C2C12 myotubes
  Viability: 0.552
Reactive oxygen species
  ROS: 0.764

## CC [methylmethane]
Cytochrome c
  cyt c: 0.221
[1]
  ΔΨm: −0.924
[2]
  MTT: −1.330
C2C12 myotubes
  Viability: −1.159
Reactive oxygen species
  ROS: 0.909

## COC1=CC(=O)C(O)=C/C1=C\C=C\c1ccccc1 [obtusaquinone]
Cytochrome c; [7]
  cyt c: −5.381
[1]; [7]
  ΔΨm: −3.829
[2]; [7]
  MTT: −6.409
C2C12 myotubes; [7]
  Viability: −4.658
Reactive oxygen species; [7]
  ROS: −1.119

## CC(=O)CCCCn1c(=O)c2c(ncn2C)n(C)c1=O [pentoxifylline]
Cytochrome c; [11]
  cyt c: −0.798
[1]; [11]
  ΔΨm: −0.696
nuOXPHOS transcripts; [11]
  nucOX: 0.292
OXPHOS gene expression; [11]
  GE-HTS: 0.062
[2]; [11]
  MTT: −0.600
C2C12 myotubes; [11]
  Viability: 0.375
Reactive oxygen species; [11]
  ROS: 0.182

## CC(=O)O[C@H]1CC[C@@]2(C)C(=CC[C@@H]3[C@@H]2CC[C@]2(C)C(=O)CC[C@@H]32)C1 [praesterone acetate]
Cytochrome c
  cyt c: −0.521
[1]
  ΔΨm: 1.329
[2]
  MTT: 1.084
C2C12 myotubes
  Viability: 1.018
Reactive oxygen species
  ROS: 0.054

## COC(=O)[C@]1(C)CC[C@]2(C)CC[C@]3(C)C4=CC=C5C(=CC(=O)C(O)=C5C)[C@]4(C)CC[C@@]3(C)[C@@H]2C1 [pristimerin]
Cytochrome c; [7]
  cyt c: −5.896
[1]; [7]
  ΔΨm: −3.651
[2]; [7]
  MTT: −6.164
C2C12 myotubes; [7]
  Viability: −5.473
Reactive oxygen species; [7]
  ROS: −3.693

## C=C(C)/C=C1/C=CC(=O)C(C)=C1 [retusoquinone]
Cytochrome c; [10]
  cyt c: −5.303
[1]; [10]
  ΔΨm: −3.628
[2]; [10]
  MTT: −6.075
C2C12 myotubes; [10]
  Viability: −5.371
Reactive oxygen species; [10]
  ROS: −3.565

## C=C(C)CCCC(C)CCOC(C)=O (stereo not drawn) [rhodinyl acetate]
Cytochrome c
  cyt c: 0.137
[1]
  ΔΨm: −0.631
[2]
  MTT: −0.833
C2C12 myotubes
  Viability: −0.197
Reactive oxygen species
  ROS: −0.024

## COc1ccc2c(c1)OCC(=Cc1ccc(O)c(O)c1)C2=O [sappanone (A) 7-methyl ether, reference compound]
OXPHOS gene expression; [9]
  GEHTS_Zscore: 1.410
Reactive oxygen species; [9]
  ROS Zscore: −1.493

## COc1ccc2c(c1)OC/C(=C/c1ccc(OC)c(OC)c1)C2=O [sappanone (A) trimethyl ether, reference compound]
OXPHOS gene expression; [9]
  GEHTS_Zscore: 2.376
Reactive oxygen species; [9]
  ROS Zscore: 0.1195

## COc1ccc2c(c1)OC[C@@H](Cc1ccc(OC)c(OC)c1)[C@H]2O [tetrahydrosappanone (A) trimethyl ether, reference compound]
OXPHOS gene expression; [9]
  GEHTS_Zscore: 0.583
Reactive oxygen species; [9]
  ROS Zscore: 0.274

## O=C1C(O)=C(O)C(=O)C(O)=C1O [tetrahydroxy-1,4-quinone]
Cytochrome c
  cyt c: −0.785
[1]
  ΔΨm: −0.511
[2]
  MTT: −1.965
C2C12 myotubes
  Viability: −1.006
Reactive oxygen species
  ROS: 0.667

## CN(C)CCCN1c2ccccc2Sc2ccc(C(F)(F)F)cc21 [triflupromazine]
nuOXPHOS transcripts
  nucOX: 0.404
OXPHOS gene expression
  GE-HTS: 0.225
Reactive oxygen species
  ROS: 1.208

## (S)-(−)-atenolol
Cytochrome c
  cyt c: 0.030
[1]
  ΔΨm: 0.396
[2]
  MTT: −0.552
C2C12 myotubes
  Viability: 0.012
Reactive oxygen species
  ROS: −0.554

## L-methionine sulfoximine
Cytochrome c
  cyt c: −0.412
[1]
  ΔΨm: −0.703
[2]
  MTT: −1.902
C2C12 myotubes
  Viability: −0.928
Reactive oxygen species
  ROS: 0.762

## dimenhydrinate
[1]; [7]
  ΔΨm: −0.890
nuOXPHOS transcripts; [7]
  nucOX: −0.086
OXPHOS gene expression; [7]
  GE-HTS: −0.225
[2]; [7]
  MTT: −1.505
Reactive oxygen species; [7]
  ROS: 0.339

## podophyllotoxin acetate [reference compound]
OXPHOS gene expression; [4]
  GEHTS_Zscore: 3.506
Reactive oxygen species; [4]
  ROS Zscore: −1.656

## pyrantel tartrate
Cytochrome c
  cyt c: −0.306
[1]
  ΔΨm: −1.028
[2]
  MTT: −1.214
C2C12 myotubes
  Viability: 0.330
Reactive oxygen species
  ROS: 1.579

## sappanone (A) dimethyl ether [reference compound]
OXPHOS gene expression; [9]
  GEHTS_Zscore: 0.524
Reactive oxygen species; [9]
  ROS Zscore: −2.429
